This note sets out measurements from paper PMC6380468, “Investigations on small molecule inhibitors targeting the histone H3K4 tri-methyllysine binding PHD-finger of JmjC histone demethylases” (Bioorganic & Medicinal Chemistry, 2018).

In this test the target is T1, KDM5A_c2 (Homo sapiens, UniProt P29375).
T1 sequence (P29375 with tags, fused parts or gaps): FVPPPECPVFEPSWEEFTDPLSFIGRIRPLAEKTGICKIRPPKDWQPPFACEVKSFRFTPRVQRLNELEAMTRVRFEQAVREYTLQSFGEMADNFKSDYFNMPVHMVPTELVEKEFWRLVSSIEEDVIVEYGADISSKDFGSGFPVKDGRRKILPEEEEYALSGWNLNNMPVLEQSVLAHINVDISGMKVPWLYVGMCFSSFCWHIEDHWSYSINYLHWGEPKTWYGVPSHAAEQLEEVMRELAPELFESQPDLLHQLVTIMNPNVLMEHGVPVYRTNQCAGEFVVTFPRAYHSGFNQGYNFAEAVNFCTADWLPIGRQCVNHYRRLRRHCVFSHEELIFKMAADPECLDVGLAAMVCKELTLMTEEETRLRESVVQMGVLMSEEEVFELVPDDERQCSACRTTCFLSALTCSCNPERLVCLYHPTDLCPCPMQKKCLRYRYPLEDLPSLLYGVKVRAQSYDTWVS
Put plainly: Formaldehyde dehydrogenase (FDH) enzyme-coupled fluorescence assay, kinetic analysis. In kind it is biochemical. On the procedure:
Enzyme mixture (25 µL) containing KDM5A-c2 (0.5 µM) and FDH (2.0 µM) in FDH buffer [50mM HEPES (50 mM), Tween20 (0.1%), NaCl (50 mM), pH 7.5 in MQ)] was prepared and aliquoted in a 384-well flat-bottom microplate (µClear, Greiner). The peptide mixture (25 µL) [ascorbate (2 mM), (NH4)2Fe(II)(SO4)2 (100 µM), 2OG (400 µM), H3(1-21)K4me3 peptide (ranging from 0 to 100 µM), β-NAD (500 µM), 2a (0 to 160 µM, in DMSO (2% final in this solution)) in FDH buffer] was added to initiate the reaction and the fluorescence was monitored (every 30 seconds over 25 min at 25.0 °C) using the PHERAstar (BMG LABTECH). The initial rates at each peptide concentrations were used to generate the Michaelis-Menten plots. Combined datasets from two independent experiments were globally fitted to a mixed inhibition model using Prism Ver 7.01, and Ki and α values were determined. Lineweaver-Burk plots were also generated using Prism Ver 7.01

[1] abbreviates: KDM5A_c2, mixed inhibition model, with respect to H3K4me3 substrate, N=2.

With `CCCCc1oc2ccccc2c1C(=O)c1ccc(OCCC[N+](C)(C)C)cc1.[I-]` [Compound 2a, 3-(4-(2-Butylbenzofuran-3-carbonyl)phenoxy)-N,N,N-trimethylpropan-1-aminium iodide], where the note is “FDH coupled assay, no H3K4me3”, the “substrate of KDM5A_c2 (formaldehyde production in the absence of H3K4me3)” value was “not a substrate”. Further, under “KDM5A_c2, Lineweaver-Burk plots”, the “mode of inhibition with respect to H3K4me3” value was “non-competitive”. Under setting [1], the Ki was 74 ± 28 µM and the α is 1.64 ± 0.85.

Broadly, the Ki is a dissociation constant, usually derived from enzyme kinetics or from competition with a known ligand.
